Laboratory results taken from patent publication US8980844B2, “Peptide having antibacterial or anti-inflammatory activity and pharmaceutical composition containing the same as an active ingredient” (Nano Intelligent Biomedical Engineering Corporation Co. Ltd., priority 2010, dated 2015).
Structures can show the parent of a compound that is named as a salt. No end group written: not given here.

B1: rhHB-EGF: recombinant human HB-EGF, comparator growth factor (protein, UniProt Q99075 63-148, looked up)
Heparin-binding EGF-like …: DLQEADLDLLRVTLSSKPQALATPNKEEHGKRKKKGKGLGKKRDPCLRKYKDFCIHGECKYVKELRAPSCICHPGYHGERCHGLSL

Legend:
Format in all cases: cell-based
[1] = test system: NF-κB expression in RAW 264.7 cells; assay: Western blot analysis of NF-κB; details: 1 hour pretreatment, LPS 10 ng/ml, 8 hours, FIG. 3
Protocol: In order to examine association with signals, the expression of the allergic inflammation-associated enzyme NF-κB associated with the NF-κB signal was measured.
(§1) RAW 264.7 cells obtained from ATCC (American Type Culture Collection) were incubated in a CO2 incubator (supplied with 5% CO2 and 95% air) with DMEM (Dulbecco's modified Eagle medium) medium containing 10% FBS and 100 units/ml of antibiotics (penicillin and streptomycin) at 37° C.
The incubated RAW 264.7 cells were treated with each of the peptides having the amino acid sequences of SEQ ID NOS: 1 to 4 for 1 hour, and then treated with LPS (10 ng/ml). After 8 hours, a protein of each of the cytosol and the nucleus was collected and compared with the changes in expression of NF-κB caused by hBD3, rhPDGF-BB and rhHB-EGF. The collected protein was identified by SDS-PAGE and transferred to a nitrocellulose membrane using a blotting kit. The membrane was blotted with the primary antibody NF-κB and exposed to HRP (horseradish peroxidase)-conjugated secondary antibody. Then, the membrane was allowed to react with an ECL western blot detection reagent and exposed to an X-ray film to detect a signal, thereby measuring the expression of the inflammation-associated enzyme NF-κB.

[2] = test system: COX-2 expression in RAW 264.7 cells; assay: Western blot analysis of COX-2; details: 1 hour pretreatment, LPS 10 ng/ml, 8 hours, FIG. 4
Protocol: as §1
(§2) The incubated RAW 264.7 cells were treated with each of the peptides having the amino acid sequences of SEQ ID NOS: 1 to 4 for 1 hour, and then treated with LPS (10 ng/ml). After 8 hours, a protein of each of the cytosol and the nucleus was collected and compared with the changes in expressions of iNOS and COX-2 caused by hBD3, rhPDGF-BB and rhHB-EGF. The collected protein was identified by SDS-PAGE and transferred to a nitrocellulose membrane using a blotting kit. The membrane was blotted with each of the primary antibodies iNOS and COX-2 and exposed to HRP (horseradish peroxidase)-conjugated secondary antibody. Then, the membrane was allowed to react with an ECL western blot detection reagent and exposed to an X-ray film to detect signals, thereby measuring the expressions of the inflammation-associated enzymes iNOS and COX-2.

[3] = test system: iNOS expression in RAW 264.7 cells; assay: Western blot analysis of iNOS; details: 1 hour pretreatment, LPS 10 ng/ml, 8 hours, FIG. 4
Protocol: as §1, §2

[4] = test system: Basophilic leukemia RBL-2H3 cells; assay: Change in release of β-hexosaminidase (degranulation, anti-allergic effect); details: RBL-2H3 cells sensitised with anti-DNP IgE, challenged with DNP-HAS; concentration of 100 μM; FIG. 2
Protocol: In order to examine the anti-allergic effects of the peptides having the amino acid sequences of SEQ ID NOS: 1 to 4, the changes in release of β-hexosaminidase by the peptides were measured.
Basophilic leukemia RBL-2H3 cells obtained from ATCC (American Type Culture Collection) were cultured in a CO2 incubator (supplied with 5% CO2 and 95% air) with DMEM (Dulbecco's modified Eagle medium) medium containing 10% FBS (heat inactivated fetal bovine serum) and 100 units/ml of antibiotics (penicillin and streptomycin) at 37° C. for 24 hours. Specifically, the cells were cultured in a 96-well plate at a density of 5×10^4 cells/well, and then the supernatant was removed. […] Then, the absorbance at 405 nm was measured and the change in release of β-hexosaminidase was determined. The method of measuring the amount of β-hexosaminidase is known to be sensitive and accurate compared to a method of quantifying histamine, and thus has recently been frequently used in studies on degranulation. For comparison, In addition, the changes in release of β-hexosaminidase by KF and growth factors (hBD3, rhPDGF-BB and rhHB-EGF), which are used as agents for treating allergic diseases, were measured in the same manner as described above and compared with the changes caused by the peptides.

[5] = test system: Prevotella intermedia, Actinomyces israelii, Fusobacterium nucleatum, Staphylococcus aureus subsp aureus, Streptococcus pyogenes, Staphylococcus epidermidis; assay: Antibacterial activity by liquid dilution method (colony count); details: liquid dilution method, 1, 10 and 100 μg/ml, 37° C. for 1 hour, number of colonies counted; FIG. 1
Protocol: In order to evaluate the antibacterial effects of the peptides having the amino acid sequences of SEQ ID NOS: 1 to 4, measurement of the antibacterial activities of the peptides was carried out using a liquid dilution method. Periodontal pathogens, including Prevotella intermedia, Actinomyces israelii, and Fusobacterium nucleatum, were cultured in tryptic soy broth. Staphylococcus aureus subsp aureus and Streptococcus pyogenes were curtured in trypticase soy broth, and Staphylococcus epidermidis was curtured in nutrient liquid medium. After the above bacterial strains had been cultured until the absorbance at 620 nm reached 1, the cells were collected and used in the test. […]
In order to measure the antibacterial activities of the peptides using the liquid dilution method, 1 ml of distilled water was placed in a fine tube, after which 10 μl of the diluted bacterial cell solution was placed in the tube, and then 50 μl of the solution was plated on plate medium and used as a control. Meanwhile, plate medium was treated with each of the antibacterial peptides at concentrations of 1 μg/ml, 10 μg/ml and 100 μg/ml at 37° C. for 1 hours, after which 50 μl of the bacterial cell solution was plated on the plate medium, and the number of colonies produced was counted. […]

Molecule	LPS-induced expression of NF-κB [1]	LPS-induced expression of COX-2 [2]	LPS-induced expression of iNOS [3]	release of β-hexosaminidase [4]	antibacterial activity [5]
CN1CCC(=C2c3ccccc3CC(=O)c3sccc32)CC1 [KF, ketotifen fumarate, reference compound]	smaller than the inhibitory effects of the peptides	smaller than the inhibitory effects of the peptides	smaller than the inhibitory effects of the peptides	–	–
hBD3: human beta-defensin-3, comparator (GIINTLQKYYCRVRGGRCAVLSCLPKEEQIGKCSTRGRKCCRRKK; ends and bridges not checked; cysteine pairing not given here; UniProt P81534 23-67, looked up)	not greater than those of the peptides	no inhibitory effect	no inhibitory effect	did not influence the reduction in the release of β-hexosaminidase	lower than those of the peptides
B1	not greater than those of the peptides	no inhibitory effect	no inhibitory effect	did not influence the reduction in the release of β-hexosaminidase	lower than those of the peptides
